Measured values reported in patent US20050197364A1, “Amide compounds as ion channel ligands and uses thereof” (priority 2003, published 2005).

Key:
VR1 receptor = test: High throughput calcium imaging assay (Fura2, Flex Station) of VR1 antagonists, pH 5.1 stimulus; type: cell-based; settings: 1 uM compound; inhibition of calcium ion influx induced by capsaicin stimulation
Experimental: Therefore the functional activity of compounds at the VR1 receptor may be determined by measuring changes in intracellular calcium levels in 293 cells expressing capsaicin-insensitive VR1 receptor variants. A dual wavelength ratiometric dye, Fura2, was used as an indicator of relative levels of calcium ions in a 96 well format using a bench top scanning fluorometer with integrated fluidics and temperature control (Flex Station, Molecular Devices).
293 cells were grown on PDL coated 96-well black-walled plates, in the presence of a DMEM medium containing 5% Penstrep, 5% Glutamax, 200 ug/mL Hygromycin, 5 μg/mL Blasticide and 10% heat inactivated FBS. Prior to assay, the cells were loaded with 5 μg/mL Fura2 in normal saline solution at 37° C. for 40 minutes. Cells were then washed with normal saline to remove the dye.
The assay consists of two stages; a pre-treatment phase followed by a treatment phase.
50 μl of a compound solution was added to the cells (Pre-treatment). Immediately following, 50 μl of the test compound in a saline solution at pH 5.1 was added. Fura2 was excited at 340 and 380 nM to indicate relative calcium concentration. Changes in wavelength measurements were made throughout the course of the experiment in 4 second intervals over a period of 3 minutes. Responses were measured as peak fluorescence ratio after test compound addition minus baseline fluorescence ratio prior to pre-treatment and were calculated using SoftMaxPro softwareData were expressed as percentage inhibition calculated using Excel as follows: [formula]

[1] = tested on: capsaicin induced plasma extravasation; test: Plasma extravasation study (capsaicin applied to ear, Evans Blue); type: in vivo, rat; settings: rats, dose of 30 mg/kg, dosed two hours before Evans Blue; FIG. 2
Experimental: The density of TRPV1 expression is enhanced during an inflammatory condition. Therefore TRPV1 antagonists have been investigated in three different models of inflammatory pain, namely plasma extravasation, paw lick assay, and thermal hyperalgesia.
Sprague-Dawley male rats obtained from Charles River, San Diego, Calif. were dosed with compound 18. Two hours later, they were injected with Evan's Blue (10 ml/kg or 150 μl). Thirty minutes after I.V. injection, 10 μl of 25 mM capsaicin in 100% ethanol was applied to the left ear of the animal, followed by 10 μl vehicle (100% EtOH) to the right ear of the […]. Fifteen minutes later, the animal was sacrificed using CO2. Each ear was removed, placed into labeled tubes and weighed. The dye was then extracted from the ears by drying the ears at 55-60° overnight. The following day, 250 μl formamide was added and left at 55-60° overnight.
An Evans blue standard curve was first generated ([…]). Samples (with ears) were spun for at least 1 minute before addition of 100 μl of each sample to appropriate wells. Samples were analyzed in a plate holder by SOFTmax PRO. Standards were graphed to generate a standard curve and then used to extrapolate Evans Blue concentrations of experimental samples.

CYP2D6 = CYP2D6 (Homo sapiens, UniProt P10635); test: Cytochrome p450 inhibition assessment, CYP2D6; type: in vitro ADME; settings: concentration range tested, upper 100 μM
Experimental: The ability of test compounds to inhibit five major human cytochrome p450 isozymes was evaluated. Cytochrome p450 inhibition assays were performed on 96-well microtiter assay plates according to the protocols described in Gentest P450 inhibition instruction manuals. The assays were performed in duplicate at 8 concentrations with the upper concentration of 100 μM followed by a 1:3 serial dilution. Reactions were initiated by the addition of 100 μL of enzyme/substrate mix to 100 μL of cofactor/serial dilution mix, and terminated by addition of 75 μL of a 4:1 acentonitrile: 0.5 M Tris base solution or by 2N NaOH for CYP3A4/DBF. Fluorescence was measured using a fluorescence plate reader (FLUOstar model 403, BMG Lab Technologies, Durham, N.C.). For reactions with inhibition greater than 50%, IC50 values were determined by fitting the data to the Hill equation using software GraphPad Prism (Version 4.02, GraphPad Software, San Diego, Calif.).

Chain of CYP2D6 (P10635 whole entry): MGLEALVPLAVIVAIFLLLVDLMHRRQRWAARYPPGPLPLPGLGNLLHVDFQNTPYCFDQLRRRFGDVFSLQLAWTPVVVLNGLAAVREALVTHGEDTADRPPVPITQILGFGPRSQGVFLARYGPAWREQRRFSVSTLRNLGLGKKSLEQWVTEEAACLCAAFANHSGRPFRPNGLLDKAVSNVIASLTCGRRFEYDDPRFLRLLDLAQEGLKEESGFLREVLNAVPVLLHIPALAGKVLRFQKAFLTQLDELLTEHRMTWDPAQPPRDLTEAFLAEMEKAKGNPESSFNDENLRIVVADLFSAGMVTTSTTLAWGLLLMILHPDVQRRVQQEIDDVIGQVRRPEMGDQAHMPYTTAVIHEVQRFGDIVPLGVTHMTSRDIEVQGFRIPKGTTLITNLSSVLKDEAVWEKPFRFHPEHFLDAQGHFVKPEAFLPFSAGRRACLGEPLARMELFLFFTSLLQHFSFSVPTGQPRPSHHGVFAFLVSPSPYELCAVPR

O=C(Nc1ccc(C(F)(F)F)cc1)c1ccc(-c2ncccc2Cl)cc1 [Compound 18, 4-(3-Chloropyridin-2-yl)-N-(4-trifluoromethyl-phenyl)benzamide]
% Inhibition @ 1 uM (VR1 receptor): + + + + (compound exhibited 75% or greater inhibition of calcium ion influx induced by capsaicin stimulation) | capsaicin induced plasma extravasation [1]: significantly blocks | inhibition of CYP2D6 activity (CYP2D6): did not significantly inhibit
